# Laboratory results as given in ChEMBL document CHEMBL1201862, “PubChem BioAssay data set” (2004).
# Activity calls are given as the source filed them.
# Tests used:
# [1] = molecular target: T1, Coagulation factor XII (Homo sapiens, UniProt P00748); assay: Factor XIIa Dose Response Confirmation from Single Well HTS. [Related pubchem assays (depositor defined):AID701]; format: functional
# T1 sequence (P00748 whole entry): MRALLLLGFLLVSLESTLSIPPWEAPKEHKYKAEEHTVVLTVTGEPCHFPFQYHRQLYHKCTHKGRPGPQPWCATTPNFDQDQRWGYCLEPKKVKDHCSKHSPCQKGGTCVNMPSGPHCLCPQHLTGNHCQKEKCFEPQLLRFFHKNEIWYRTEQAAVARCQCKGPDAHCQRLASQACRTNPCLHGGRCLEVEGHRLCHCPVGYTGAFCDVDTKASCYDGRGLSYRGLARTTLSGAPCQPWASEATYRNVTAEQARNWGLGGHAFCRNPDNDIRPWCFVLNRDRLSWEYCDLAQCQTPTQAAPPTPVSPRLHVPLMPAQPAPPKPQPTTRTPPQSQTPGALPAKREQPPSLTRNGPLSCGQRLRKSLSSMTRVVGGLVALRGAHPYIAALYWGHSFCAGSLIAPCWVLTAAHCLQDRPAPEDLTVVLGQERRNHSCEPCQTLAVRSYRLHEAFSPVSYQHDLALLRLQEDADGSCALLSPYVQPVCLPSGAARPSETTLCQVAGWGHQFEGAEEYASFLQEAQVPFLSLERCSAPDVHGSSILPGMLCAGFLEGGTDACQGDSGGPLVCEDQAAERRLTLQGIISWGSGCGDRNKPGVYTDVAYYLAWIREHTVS
# [2] = tested on: H9c2; assay: cells; format: functional, cell-based; conditions: Rattus norvegicus, H9c2, Myocardium;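 also: confirmatory concentration-response retest of ultra-high-throughput screening hits for modulation of myocardial damage; cell death induced by hydrogen peroxide oxidative stress; compound pretreatment for 60 min then peroxide exposure for 2 h; potency is for protecting the cells against peroxide damage rather than for killing them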
# [3] = molecular target: T2, Voltage-gated N-type calcium channel alpha-1B subunit/Amyloid beta A4 precursor protein-binding family A member 1 (Homo sapiens, UniProt Q00975+Q02410); format: protein assay
# T2 sequence (Q00975 whole entry): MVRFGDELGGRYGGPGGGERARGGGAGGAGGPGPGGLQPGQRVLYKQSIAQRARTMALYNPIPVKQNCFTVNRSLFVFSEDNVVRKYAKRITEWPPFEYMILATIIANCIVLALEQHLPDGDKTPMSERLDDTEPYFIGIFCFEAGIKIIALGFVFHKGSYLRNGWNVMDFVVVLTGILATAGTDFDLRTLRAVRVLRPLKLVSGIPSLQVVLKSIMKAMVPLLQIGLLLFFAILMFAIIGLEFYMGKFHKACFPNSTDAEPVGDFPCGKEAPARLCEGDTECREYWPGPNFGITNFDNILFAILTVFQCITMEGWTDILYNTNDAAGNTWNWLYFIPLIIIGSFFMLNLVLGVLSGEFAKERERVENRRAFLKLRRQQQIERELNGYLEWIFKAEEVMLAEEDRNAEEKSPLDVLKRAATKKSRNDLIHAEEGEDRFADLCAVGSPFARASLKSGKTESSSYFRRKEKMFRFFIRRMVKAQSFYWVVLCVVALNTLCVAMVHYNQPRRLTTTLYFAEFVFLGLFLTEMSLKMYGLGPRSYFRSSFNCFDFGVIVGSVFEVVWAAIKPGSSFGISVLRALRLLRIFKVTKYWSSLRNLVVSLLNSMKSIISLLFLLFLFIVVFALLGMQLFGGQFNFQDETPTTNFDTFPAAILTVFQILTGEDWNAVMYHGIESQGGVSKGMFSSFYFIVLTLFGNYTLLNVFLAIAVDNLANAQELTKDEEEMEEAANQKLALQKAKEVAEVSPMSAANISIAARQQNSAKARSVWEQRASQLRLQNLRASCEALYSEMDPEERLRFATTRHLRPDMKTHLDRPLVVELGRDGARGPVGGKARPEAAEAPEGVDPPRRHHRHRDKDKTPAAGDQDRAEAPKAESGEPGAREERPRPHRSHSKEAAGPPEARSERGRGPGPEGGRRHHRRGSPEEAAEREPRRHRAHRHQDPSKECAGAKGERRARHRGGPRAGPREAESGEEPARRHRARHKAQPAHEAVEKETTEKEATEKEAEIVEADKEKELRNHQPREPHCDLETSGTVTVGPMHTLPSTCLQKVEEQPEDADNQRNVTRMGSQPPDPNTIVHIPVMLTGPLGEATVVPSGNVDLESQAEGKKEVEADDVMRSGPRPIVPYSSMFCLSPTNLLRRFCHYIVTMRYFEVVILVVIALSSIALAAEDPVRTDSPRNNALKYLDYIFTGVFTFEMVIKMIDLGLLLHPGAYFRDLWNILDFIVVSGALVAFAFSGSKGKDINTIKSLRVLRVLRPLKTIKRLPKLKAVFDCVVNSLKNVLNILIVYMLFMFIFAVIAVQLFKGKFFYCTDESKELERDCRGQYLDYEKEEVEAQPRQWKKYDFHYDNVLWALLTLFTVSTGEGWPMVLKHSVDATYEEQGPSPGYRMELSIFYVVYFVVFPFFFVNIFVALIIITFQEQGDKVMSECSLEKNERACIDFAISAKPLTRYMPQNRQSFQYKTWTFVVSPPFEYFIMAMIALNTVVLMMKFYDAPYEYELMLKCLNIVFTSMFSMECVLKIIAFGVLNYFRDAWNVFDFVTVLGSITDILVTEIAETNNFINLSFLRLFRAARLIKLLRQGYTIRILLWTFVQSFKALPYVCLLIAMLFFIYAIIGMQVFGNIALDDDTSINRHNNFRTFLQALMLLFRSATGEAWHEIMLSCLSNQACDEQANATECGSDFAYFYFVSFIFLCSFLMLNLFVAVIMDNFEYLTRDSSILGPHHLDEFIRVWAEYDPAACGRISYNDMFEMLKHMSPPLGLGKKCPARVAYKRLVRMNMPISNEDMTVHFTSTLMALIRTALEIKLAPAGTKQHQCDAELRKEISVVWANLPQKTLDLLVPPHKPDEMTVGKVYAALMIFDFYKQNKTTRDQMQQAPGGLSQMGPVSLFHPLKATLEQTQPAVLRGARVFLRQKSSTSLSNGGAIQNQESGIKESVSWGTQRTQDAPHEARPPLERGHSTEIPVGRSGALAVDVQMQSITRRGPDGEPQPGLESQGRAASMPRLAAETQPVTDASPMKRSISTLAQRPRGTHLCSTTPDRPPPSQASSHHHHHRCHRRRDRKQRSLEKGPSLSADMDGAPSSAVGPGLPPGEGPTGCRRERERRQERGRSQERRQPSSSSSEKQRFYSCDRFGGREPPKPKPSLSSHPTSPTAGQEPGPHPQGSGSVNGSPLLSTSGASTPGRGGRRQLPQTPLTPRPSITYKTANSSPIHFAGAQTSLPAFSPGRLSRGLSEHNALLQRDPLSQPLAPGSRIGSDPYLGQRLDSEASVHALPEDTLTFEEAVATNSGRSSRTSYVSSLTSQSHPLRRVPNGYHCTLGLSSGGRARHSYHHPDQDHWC
# T2 sequence (Q02410 whole entry): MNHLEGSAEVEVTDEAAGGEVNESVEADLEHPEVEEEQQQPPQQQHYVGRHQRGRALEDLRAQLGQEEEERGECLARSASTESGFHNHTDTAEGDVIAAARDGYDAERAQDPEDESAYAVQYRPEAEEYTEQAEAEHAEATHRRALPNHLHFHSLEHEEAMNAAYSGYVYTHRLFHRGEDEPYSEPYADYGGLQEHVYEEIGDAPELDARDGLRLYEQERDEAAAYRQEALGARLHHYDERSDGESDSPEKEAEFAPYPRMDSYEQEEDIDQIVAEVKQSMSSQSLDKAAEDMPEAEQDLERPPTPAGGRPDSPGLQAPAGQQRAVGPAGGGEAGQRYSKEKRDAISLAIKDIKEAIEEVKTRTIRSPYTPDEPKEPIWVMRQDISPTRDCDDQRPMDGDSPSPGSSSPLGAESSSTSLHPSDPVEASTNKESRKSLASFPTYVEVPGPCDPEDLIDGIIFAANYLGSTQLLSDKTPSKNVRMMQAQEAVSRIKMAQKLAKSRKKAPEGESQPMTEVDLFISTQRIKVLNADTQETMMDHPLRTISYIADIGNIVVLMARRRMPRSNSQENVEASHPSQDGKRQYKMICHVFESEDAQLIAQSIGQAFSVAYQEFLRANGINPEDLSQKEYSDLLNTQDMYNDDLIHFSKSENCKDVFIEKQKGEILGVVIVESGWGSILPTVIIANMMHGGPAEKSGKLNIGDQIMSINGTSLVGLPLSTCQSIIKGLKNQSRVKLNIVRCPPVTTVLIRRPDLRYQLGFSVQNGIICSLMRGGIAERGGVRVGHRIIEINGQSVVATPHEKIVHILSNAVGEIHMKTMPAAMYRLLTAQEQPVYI
# [4] = molecular target: T2, Voltage-gated N-type calcium channel alpha-1B subunit/Amyloid beta A4 precursor protein-binding family A member 1; format: protein assay; remark: listed apart in the source
# [5] = molecular target: T3, Estrogen receptor (Homo sapiens, UniProt P03372);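 also: potency for inhibiting coactivator peptide recruitment to the receptor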
# T3 sequence (P03372 whole entry): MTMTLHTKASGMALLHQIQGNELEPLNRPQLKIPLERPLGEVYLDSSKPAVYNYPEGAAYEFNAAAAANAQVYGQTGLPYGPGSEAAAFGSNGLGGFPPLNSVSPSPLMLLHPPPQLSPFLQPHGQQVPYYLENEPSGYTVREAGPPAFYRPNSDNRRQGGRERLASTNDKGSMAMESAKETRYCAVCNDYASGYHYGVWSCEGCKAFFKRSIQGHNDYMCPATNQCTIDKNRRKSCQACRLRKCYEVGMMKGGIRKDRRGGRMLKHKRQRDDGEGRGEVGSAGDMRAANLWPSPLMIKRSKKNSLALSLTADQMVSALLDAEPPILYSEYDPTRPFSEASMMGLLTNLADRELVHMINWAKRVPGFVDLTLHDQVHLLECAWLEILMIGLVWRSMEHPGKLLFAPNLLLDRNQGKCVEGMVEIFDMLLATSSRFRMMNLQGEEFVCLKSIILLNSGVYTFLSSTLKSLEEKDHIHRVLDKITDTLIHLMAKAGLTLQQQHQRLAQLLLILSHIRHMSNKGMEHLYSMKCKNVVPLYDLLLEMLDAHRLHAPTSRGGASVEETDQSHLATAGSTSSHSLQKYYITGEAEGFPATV
# [6] = inhibitors of intracellular T. cruzi replication, confirmation, NIH3T3 host cells, beta-gal luminescence (AID 2044); format: functional, cell-based;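 also: intracellular parasites grown in NIH/3T3 mouse fibroblasts as host cells; luminescent beta-galactosidase reporter signal from transgenic T. cruzi replicating inside host cells; inhibitors lower the luminescence signal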
# [7] = molecular target: T4, Beta-galactosidase (Escherichia coli, UniProt Q8VNN2); assay: beta-galactosidase enzyme inhibitors and activators, dose response, artefact control for CCR6 antagonist project, biochemical, E. coli enzyme, set 3 (AID 504712); format: functional
# T4 sequence (Q8VNN2 whole entry): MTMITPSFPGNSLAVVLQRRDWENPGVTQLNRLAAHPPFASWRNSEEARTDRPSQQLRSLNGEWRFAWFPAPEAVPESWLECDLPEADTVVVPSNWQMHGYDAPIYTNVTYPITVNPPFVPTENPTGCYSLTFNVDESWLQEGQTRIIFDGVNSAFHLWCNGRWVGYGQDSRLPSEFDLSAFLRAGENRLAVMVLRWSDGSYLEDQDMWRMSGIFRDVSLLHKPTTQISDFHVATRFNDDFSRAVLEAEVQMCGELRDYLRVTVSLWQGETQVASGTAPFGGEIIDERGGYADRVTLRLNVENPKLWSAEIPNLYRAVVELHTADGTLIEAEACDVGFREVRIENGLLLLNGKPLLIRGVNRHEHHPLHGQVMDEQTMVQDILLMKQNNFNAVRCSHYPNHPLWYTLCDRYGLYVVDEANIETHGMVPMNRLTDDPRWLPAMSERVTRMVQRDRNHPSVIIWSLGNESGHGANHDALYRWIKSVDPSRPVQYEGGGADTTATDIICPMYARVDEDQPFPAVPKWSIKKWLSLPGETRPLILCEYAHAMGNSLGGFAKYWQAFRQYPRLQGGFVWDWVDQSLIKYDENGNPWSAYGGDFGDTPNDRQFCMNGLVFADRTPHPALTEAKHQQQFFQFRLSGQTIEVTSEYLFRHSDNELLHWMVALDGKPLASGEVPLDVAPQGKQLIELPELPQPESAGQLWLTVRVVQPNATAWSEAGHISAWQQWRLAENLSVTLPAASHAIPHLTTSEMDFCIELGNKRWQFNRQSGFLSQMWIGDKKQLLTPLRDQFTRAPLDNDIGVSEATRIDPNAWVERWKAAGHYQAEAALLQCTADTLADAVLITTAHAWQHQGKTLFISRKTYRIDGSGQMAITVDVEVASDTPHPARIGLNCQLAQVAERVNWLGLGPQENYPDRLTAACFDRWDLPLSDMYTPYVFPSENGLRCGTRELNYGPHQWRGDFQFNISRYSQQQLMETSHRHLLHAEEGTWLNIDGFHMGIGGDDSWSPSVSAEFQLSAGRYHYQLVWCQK
# [8] = cytotoxicity toward NIH3T3 fibroblasts, dose response, counter-screen, cell-based, ATP luminescence, mouse fibroblasts (AID 2010); format: functional;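 also: cells exposed to compound for about 90 hours before reading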
# [9] = microbe, parasite or virus in culture; format: functional; conditions: Mycobacterium tuberculosis
# [10] = molecular target: Disintegrin and metalloproteinase domain-containing protein 17 (Homo sapiens, UniProt P78536); assay: exosite inhibitors of ADAM17, dose response, biochemical (AID 743260)
# [11] = molecular target: G-protein coupled receptor 55 (Homo sapiens, UniProt Q9Y2T6); assay: GPR55 agonists via beta-arrestin recruitment, primary screen, imaging, U2OS cells, beta-arrestin-GFP redistribution (AID 1961); format: functional
# [12] = ADAM10 protease inhibitors, dose response, selectivity assay for ADAM17 exosite inhibitor project, biochemical, FRET peptide substrate, recombinant human ADAM10 (AID 743259);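 also: ADAM10 enzyme cleaving a FRET peptide substrate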
# [13] = molecular target: T5, Replicative DNA helicase DnaB (Mycobacterium tuberculosis, UniProt P9WMR3); assay: DnaB intein splicing inhibitors, dose response, biochemical, cell-free fluorescence (AID 449749); format: functional
# T5 sequence (P9WMR3 whole entry): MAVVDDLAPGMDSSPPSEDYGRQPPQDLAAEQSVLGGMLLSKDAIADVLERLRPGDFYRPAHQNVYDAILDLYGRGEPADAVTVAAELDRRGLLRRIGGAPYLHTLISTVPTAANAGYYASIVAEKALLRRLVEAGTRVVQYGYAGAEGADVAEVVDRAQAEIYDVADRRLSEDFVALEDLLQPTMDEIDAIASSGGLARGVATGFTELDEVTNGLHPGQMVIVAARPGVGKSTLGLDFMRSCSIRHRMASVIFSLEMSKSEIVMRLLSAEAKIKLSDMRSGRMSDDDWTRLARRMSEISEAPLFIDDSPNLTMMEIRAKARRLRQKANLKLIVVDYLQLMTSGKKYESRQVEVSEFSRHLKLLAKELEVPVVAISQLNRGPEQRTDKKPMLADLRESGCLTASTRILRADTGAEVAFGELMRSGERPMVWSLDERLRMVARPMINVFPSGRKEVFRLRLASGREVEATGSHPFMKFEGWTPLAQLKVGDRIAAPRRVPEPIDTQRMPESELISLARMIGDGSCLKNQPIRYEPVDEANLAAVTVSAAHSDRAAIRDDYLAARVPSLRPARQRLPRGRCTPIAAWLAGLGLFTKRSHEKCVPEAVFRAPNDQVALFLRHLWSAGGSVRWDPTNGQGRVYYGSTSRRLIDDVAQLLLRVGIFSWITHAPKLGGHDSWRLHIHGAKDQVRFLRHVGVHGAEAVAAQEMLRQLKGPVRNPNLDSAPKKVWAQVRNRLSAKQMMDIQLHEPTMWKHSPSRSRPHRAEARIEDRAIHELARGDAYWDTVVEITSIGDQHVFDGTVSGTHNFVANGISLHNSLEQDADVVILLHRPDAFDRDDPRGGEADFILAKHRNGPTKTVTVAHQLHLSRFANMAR
# [14] = Intein inhibitors as potential Tuberculosis drugs, a cytotoxicity screen. [Related pubchem assays (depositor defined):AID2221, AID2223, AID434968, AID435010, AID449749, AID449750, AID489010]; format: functional
# [15] = molecular target: T6, Protein RecA (Mycobacterium tuberculosis, UniProt P9WHJ3); assay: Fluorescence Cell-Free Homogeneous Dose Retest to Identify Inhibitors of RecA-Intein Splicing Activity. [Related pubchem assays (depositor defined):AID2097, AID2223, AID489010, AID492950]; format: functional
# T6 sequence (P9WHJ3 whole entry): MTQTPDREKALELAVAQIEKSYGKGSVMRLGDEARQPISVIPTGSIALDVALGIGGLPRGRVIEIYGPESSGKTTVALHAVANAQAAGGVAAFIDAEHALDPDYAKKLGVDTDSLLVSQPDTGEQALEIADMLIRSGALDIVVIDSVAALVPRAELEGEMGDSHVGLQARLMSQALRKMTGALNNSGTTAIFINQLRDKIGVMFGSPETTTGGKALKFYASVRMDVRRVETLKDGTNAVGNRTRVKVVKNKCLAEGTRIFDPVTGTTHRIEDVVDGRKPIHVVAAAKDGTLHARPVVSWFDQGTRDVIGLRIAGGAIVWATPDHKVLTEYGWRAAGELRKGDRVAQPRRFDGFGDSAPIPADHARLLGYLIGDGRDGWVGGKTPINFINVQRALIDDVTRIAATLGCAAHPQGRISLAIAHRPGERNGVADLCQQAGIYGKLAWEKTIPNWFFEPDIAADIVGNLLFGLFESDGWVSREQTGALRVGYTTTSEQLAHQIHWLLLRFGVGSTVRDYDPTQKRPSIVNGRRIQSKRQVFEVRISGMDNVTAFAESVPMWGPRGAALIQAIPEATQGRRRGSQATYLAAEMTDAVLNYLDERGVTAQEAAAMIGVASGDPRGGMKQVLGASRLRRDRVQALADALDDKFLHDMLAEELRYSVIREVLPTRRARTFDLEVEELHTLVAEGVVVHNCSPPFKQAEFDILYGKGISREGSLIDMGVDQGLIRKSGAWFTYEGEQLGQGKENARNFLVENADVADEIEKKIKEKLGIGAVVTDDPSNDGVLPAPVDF
# [16] = molecular target: T7, Kappa-type opioid receptor (Homo sapiens, UniProt P41145); assay: SAR analysis of Antagonists of the Kappa Opioid Receptor (KOR) using an Image-Based Assay - Set 4. [Related pubchem assays (depositor defined):AID1777, AID1785]; format: functional
# T7 sequence (P41145 whole entry): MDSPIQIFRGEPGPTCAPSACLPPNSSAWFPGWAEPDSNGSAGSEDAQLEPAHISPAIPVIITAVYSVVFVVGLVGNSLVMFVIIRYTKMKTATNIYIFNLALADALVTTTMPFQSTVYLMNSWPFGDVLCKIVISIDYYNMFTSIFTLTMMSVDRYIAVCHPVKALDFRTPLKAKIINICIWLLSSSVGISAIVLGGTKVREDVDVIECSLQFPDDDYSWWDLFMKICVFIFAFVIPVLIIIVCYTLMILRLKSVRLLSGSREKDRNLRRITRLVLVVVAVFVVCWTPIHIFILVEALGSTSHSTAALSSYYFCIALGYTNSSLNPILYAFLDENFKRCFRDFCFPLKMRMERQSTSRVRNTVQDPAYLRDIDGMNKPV
# [17] = molecular target: T7, Kappa-type opioid receptor; assay: SAR analysis of small molecule antagonists of the kappa opioid receptor via a luminescent beta-arrestin assay - Set 4. [Related pubchem assays (depositor defined):AID1777, AID1778, AID1785, AID1786, AID1966, AID2133, AID2136, AID2285]; format: functional
# [18] = molecular target: Mu-type opioid receptor (Homo sapiens, UniProt P35372); assay: SAR Analysis of Antagonists of the MOR Receptor using an Image-Based Assay - Set 3. [Related pubchem assays (depositor defined):AID1777, AID1785, AID1786, AID1966, AID2133, AID2136, AID2284, AID2285, AID2420]; format: functional
# [19] = molecular target: Delta-type opioid receptor (Homo sapiens, UniProt P41143); assay: SAR Analysis of Antagonists of the DOR Receptor using an Image-Based Assay - Set 3. [Related pubchem assays (depositor defined):AID1777, AID1785]; format: functional;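 also: U2OS cells expressing DOR1 and beta-arrestin GFP stimulated with 100 nM SNC80; imaging of GFP-tagged beta-arrestin moving into spots after receptor activation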
# [20] = molecular target: T8, Short transient receptor potential channel 4 (Mus musculus, UniProt Q9QUQ5); assay: TRPC4 positive allosteric modulators, dose response, cell-based, HEK293 TRPC4/mu-opioid, Fluo-4 calcium, EC20 DAMGO (AID 434941); format: functional
# T8 sequence (Q9QUQ5 whole entry): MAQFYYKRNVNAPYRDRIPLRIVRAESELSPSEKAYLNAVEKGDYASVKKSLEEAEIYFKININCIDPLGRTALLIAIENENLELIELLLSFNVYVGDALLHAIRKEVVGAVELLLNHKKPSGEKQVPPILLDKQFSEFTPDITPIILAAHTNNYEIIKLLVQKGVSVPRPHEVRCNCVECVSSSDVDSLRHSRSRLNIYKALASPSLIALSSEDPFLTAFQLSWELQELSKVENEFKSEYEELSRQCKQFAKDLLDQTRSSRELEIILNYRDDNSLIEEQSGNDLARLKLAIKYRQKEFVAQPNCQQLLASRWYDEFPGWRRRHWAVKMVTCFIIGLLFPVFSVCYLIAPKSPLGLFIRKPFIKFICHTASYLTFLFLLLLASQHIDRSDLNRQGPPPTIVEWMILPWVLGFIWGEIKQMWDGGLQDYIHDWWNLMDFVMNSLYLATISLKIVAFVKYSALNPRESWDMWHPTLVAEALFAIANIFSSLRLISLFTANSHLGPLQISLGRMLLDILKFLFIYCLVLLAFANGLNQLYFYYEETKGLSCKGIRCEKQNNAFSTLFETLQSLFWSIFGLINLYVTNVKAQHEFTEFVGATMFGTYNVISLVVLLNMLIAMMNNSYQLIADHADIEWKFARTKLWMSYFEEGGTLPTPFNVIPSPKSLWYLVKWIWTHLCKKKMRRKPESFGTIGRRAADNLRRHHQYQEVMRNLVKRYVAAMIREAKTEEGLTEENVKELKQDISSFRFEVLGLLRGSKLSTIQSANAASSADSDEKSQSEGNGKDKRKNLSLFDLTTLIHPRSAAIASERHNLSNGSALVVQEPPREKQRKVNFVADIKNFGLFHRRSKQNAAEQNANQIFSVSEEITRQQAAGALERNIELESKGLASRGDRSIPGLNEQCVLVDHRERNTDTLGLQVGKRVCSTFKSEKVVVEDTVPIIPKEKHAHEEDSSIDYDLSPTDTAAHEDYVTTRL
# [21] = molecular target: T7, Kappa-type opioid receptor; format: functional
# [22] = molecular target: T7, Kappa-type opioid receptor; format: functional; remark: listed apart in the source
# [23] = molecular target: T4, Beta-galactosidase; format: functional
# [24] = molecular target: Glyceraldehyde-3-phosphate dehydrogenase (Homo sapiens, UniProt P04406)
# Glyceraldehyde-3-phosphate dehydrogenase, sequence (P04406 whole entry): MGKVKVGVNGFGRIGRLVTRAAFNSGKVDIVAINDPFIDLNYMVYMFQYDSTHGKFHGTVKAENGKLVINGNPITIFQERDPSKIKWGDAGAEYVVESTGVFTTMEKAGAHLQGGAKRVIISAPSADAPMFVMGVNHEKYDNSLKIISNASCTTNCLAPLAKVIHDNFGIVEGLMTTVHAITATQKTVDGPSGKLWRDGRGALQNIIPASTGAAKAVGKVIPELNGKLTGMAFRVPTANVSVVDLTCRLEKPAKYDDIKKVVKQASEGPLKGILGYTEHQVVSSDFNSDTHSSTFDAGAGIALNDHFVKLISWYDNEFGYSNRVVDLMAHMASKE
# [25] = molecular target: Alkaline phosphatase, placental type (Homo sapiens, UniProt P05187); assay: PLAP enzyme inhibitors, confirmation, biochemical, luminescence (AID 1512); format: functional
smiles,measurement,setting,value
CC(=O)Oc1ccc2c(C)cc(=O)oc2c1,IC50,[1],> 50 µM (inconclusive)
same,IC50,[2],16.5 µM (active)
C=CCOc1ccc(CC2C(=O)N(C)C(=O)N(C)C2=O)cc1,IC50,[3],> 50 µM (inactive)
same,IC50,[4],4.93 µM (active)
same,IC50,[5],> 50 µM (not active)
C=CCN(CC=C)C(=S)NC(=O)c1ccc(-c2ccccc2)cc1,EC50,[6],1.82 µM (active)
same,IC50,[7],> 66.6 µM (inactive)
same,EC50,[8],9.2 µM (active)
same,CC50,[9],> 40 µM (active)
Cc1ccc(S(=O)(=O)N(Cc2ccc(Cl)cc2)c2ccccc2C(=O)NCc2ccco2)cc1,IC50,[10],> 69.5 µM (inactive)
same,EC50,[11],> 32 µM (inactive)
same,IC50,[12],> 7.72 µM (active)
N#CC1=C(N)Oc2[nH]nc(-c3ccccc3)c2C1c1cccc(OC(=O)N2CCOCC2)c1 (stereo not given),AC50,[13],4.72 µM (active)
same,CC50,[14],31.4 µM (active)
same,EC50,[15],1.19 µM (active)
CC(C)N(CCNC(=O)c1ccc(CNS(=O)(=O)c2ccc(C(C)(C)C)cc2)cc1)Cc1ccccc1,IC50,[16],0.79 µM (active)
same,IC50,[17],2.66 µM (active)
same,IC50,[18],> 32 µM (inactive)
same,IC50,[19],> 32 µM (inactive)
O=[N+]([O-])c1cc(C(F)(F)F)ccc1NC1CCN(Cc2ccccc2)C1 (stereo not given),EC50,[20],0.67 µM (active)
CCCCC/C(=N/O)c1c(C)[nH]c2ccccc12,IC50,[21],> 32 µM
same,IC50,[22],> 31.5 µM (inactive)
same,EC50,[23],> 31.5 µM (inactive)
CC(C)NC(=O)c1cc(-c2cc(F)c(Cl)cc2Cl)n[nH]1,IC50,[24],> 100 µM (not active)
same,IC50,[25],> 100 µM (inactive)
